Laboratory results taken from ChEMBL document CHEMBL5252615, “Synthesis, biological activity and mechanism of action of novel allosecurinine derivatives as potential antitumor agents” (Bioorg Med Chem, 2023).
The source made the active and inactive calls. The calls are words filed in the database; no cut-off is given here.

How the values were obtained:
[1] = system: NB-4; assay: Induction of apoptosis in human NB4 cells assessed as necrotic cells at 2.5 uM after 48 hrs by Annexin-V-FITC/PI staining based flow cytometric analysis (reference value: 0.29%); assay type: functional
[2] = system: THP-1; assay: Induction of apoptosis in human THP-1 cells assessed as necrotic cells at 2.5 uM after 48 hrs by Annexin-V-FITC/PI staining based flow cytometric analysis (reference value: 0.19%); assay type: functional
[3] = system: KG-1; assay: Induction of reactive oxygen species production in human KG-1 cells at 1 to 5 uM measured after 48 hrs by DCFH-DA staining based flow cytometric analysis; assay type: functional, cell-based; conditions: dose 1-5 µM
[4] = system: NB-4; assay: Induction of differentiation of human NB4 cells assessed as increase in CD11b expression at 0.5 uM measured after 72 hrs by flow cytometric analysis; assay type: functional, cell-based
[5] = system: K562; assay: Induction of apoptosis in human K562 cells assessed as early apoptotic cells at 2.5 uM after 48 hrs by Annexin-V-FITC/PI staining based flow cytometric analysis (reference value: 1.26%); assay type: functional
[6] = system: THP-1; assay: Induction of apoptosis in human THP-1 cells assessed as decrease in expression level of Bcl-2 measured after 48 hrs by Western blotting analysis; assay type: functional, cell-based; conditions: dose 1-5 µM
[7] = system: THP-1; assay: Induction of apoptosis in human THP-1 cells assessed as change in mitochondrial membrane potential after 48 hrs by JC-1 staining based flow cytometric analysis; assay type: functional, cell-based
[8] = system: U-937; assay: Induction of apoptosis in human U-937 cells assessed as change in mitochondrial membrane potential after 48 hrs by JC-1 staining based flow cytometric analysis; assay type: functional, cell-based
[9] = system: U-937; assay: Induction of differentiation of human U-937 cells assessed as increase in CD11b expression at 0.5 uM measured after 72 hrs by flow cytometric analysis; assay type: functional, cell-based
[10] = system: SK-OV-3; assay: Antitumor activity against taxol-resistant human SK-OV-3 cells assessed as reduction in cell viability incubated for 72 hrs; assay type: functional, cell-based; conditions: SK-OV-3, 72 h
[11] = system: KG-1; assay: Induction of apoptosis in human KG-1 cells assessed as decrease in expression level of Bcl-2 measured after 48 hrs by Western blotting analysis; assay type: functional, cell-based; conditions: dose 1-5 µM
[12] = system: HL-60; assay: Induction of apoptosis in human HL-60 cells assessed as viable cells at 2.5 uM after 48 hrs by Annexin-V-FITC/PI staining based flow cytometric analysis (reference value: 96.05%); assay type: functional; conditions: read-out: Activity
[13] = system: SK-OV-3; assay: Antitumor activity against human SK-OV-3 cells assessed as reduction in cell viability incubated for 72 hrs; assay type: functional, cell-based; conditions: SK-OV-3, 72 h
[14] = system: U-937; assay: Induction of apoptosis in human U-937 cells assessed as late apoptotic cells at 2.5 uM after 48 hrs by Annexin-V-FITC/PI staining based flow cytometric analysis (reference value: 0.94%); assay type: functional
[15] = system: NB-4; assay: Induction of apoptosis in human NB4 cells assessed as early apoptotic cells at 2.5 uM after 48 hrs by Annexin-V-FITC/PI staining based flow cytometric analysis (reference value: 0.86%); assay type: functional
[16] = system: NB-4; assay: Induction of apoptosis in human NB4 cells assessed as decrease in expression level of XIAP measured at 1 to 5 uM after 48 hrs by Western blotting analysis; assay type: functional, cell-based; conditions: dose 1-5 µM
[17] = system: U-937; assay: Antitumor activity against human U-937 cells assessed as reduction in cell viability incubated for 72 hrs; assay type: functional, cell-based; conditions: U-937, 72 h
[18] = system: THP-1; assay: Induction of apoptosis in human THP-1 cells assessed as early apoptotic cells at 2.5 uM after 48 hrs by Annexin-V-FITC/PI staining based flow cytometric analysis (reference value: 4.61%); assay type: functional
[19] = system: HL-60; assay: Induction of differentiation of human HL-60 cells assessed as increase in CD11b expression at 0.5 uM measured after 72 hrs by flow cytometric analysis; assay type: functional, cell-based
[20] = system: KG-1; assay: Induction of apoptosis in human KG-1 cells assessed as viable cells at 2.5 uM after 48 hrs by Annexin-V-FITC/PI staining based flow cytometric analysis (reference value: 96.41%); assay type: functional
[21] = system: KG-1; assay: Induction of apoptosis in human KG-1 cells assessed as decrease in expression level of XIAP measured at 1 to 5 uM after 48 hrs by Western blotting analysis; assay type: functional, cell-based; conditions: dose 1-5 µM
[22] = system: THP-1; assay: Induction of reactive oxygen species production in human THP-1 cells at 1 to 5 uM measured after 48 hrs by DCF fluorescence analysis; assay type: functional, cell-based; conditions: dose 1-5 µM
[23] = system: HL-60; assay: Induction of apoptosis in human HL-60 cells assessed as early apoptotic cells at 2.5 uM after 48 hrs by Annexin-V-FITC/PI staining based flow cytometric analysis (reference value: 0.68%); assay type: functional
[24] = system: KG-1; assay: Induction of apoptosis in human KG-1 cells assessed as change in mitochondrial membrane potential after 48 hrs by JC-1 staining based flow cytometric analysis; assay type: functional, cell-based
[25] = system: U-937; assay: Induction of apoptosis in human U-937 cells assessed as increase in expression level of p21 measured at 1 to 5 uM after 48 hrs by Western blotting analysis; assay type: functional, cell-based; conditions: dose 1-5 µM
[26] = system: HL-60; assay: Induction of apoptosis in human HL-60 cells assessed as necrotic cells at 2.5 uM after 48 hrs by Annexin-V-FITC/PI staining based flow cytometric analysis (reference value: 2.83%); assay type: functional
[27] = system: K562; assay: Antitumor activity against human K562 cells assessed as reduction in cell viability incubated for 72 hrs; assay type: functional, cell-based; conditions: K562, 72 h
[28] = system: K562; assay: Induction of apoptosis in human K562 cells assessed as decrease in expression level of caspase 3/9 measured at 1 to 5 uM after 48 hrs by Western blotting analysis; assay type: functional, cell-based; conditions: dose 1-5 µM
[29] = system: NB-4; assay: Induction of apoptosis in human NB4 cells assessed as viable cells at 2.5 uM after 48 hrs by Annexin-V-FITC/PI staining based flow cytometric analysis (reference value: 97.96%); assay type: functional; conditions: read-out: Activity
[30] = system: NB-4; assay: Induction of apoptosis in human NB4 cells assessed as decrease in expression level of YAP1 measured at 1 to 5 uM after 48 hrs by Western blotting analysis; assay type: functional, cell-based; conditions: dose 1-5 µM
[31] = system: THP-1; assay: Antitumor activity against human THP-1 cells assessed as reduction in cell viability incubated for 72 hrs; assay type: functional, cell-based; conditions: THP-1, 72 h
[32] = system: U-937; assay: Induction of reactive oxygen species production in human U-937 cells at 1 to 5 uM measured after 48 hrs by DCFH-DA staining based flow cytometric analysis; assay type: functional, cell-based; conditions: dose 1-5 µM
[33] = system: THP-1; assay: Induction of apoptosis in human THP-1 cells assessed as accumulation of cells at sub-G1 phase at 2.5 uM after 48 hrs by PI staining based flow cytometric analysis; assay type: functional, cell-based
[34] = system: K562; assay: Induction of apoptosis in human K562 cells assessed as decrease in expression level of YAP1 measured at 1 to 5 uM after 48 hrs by Western blotting analysis; assay type: functional, cell-based; conditions: dose 1-5 µM
[35] = system: U-937; assay: Induction of apoptosis in human U-937 cells assessed as accumulation of cells at G1 phase at 1 to 2.5 uM after 48 hrs by PI staining based flow cytometric analysis; assay type: functional, cell-based; conditions: dose 1-2.5 µM

O=C1O[C@@]23C[C@@H](C=CC2=C1C(O)c1ccc([N+](=O)[O-])cc1)N1CCCC[C@H]13 (stereo not given in full)
Activity [1]: 3.4%
Activity [2]: 1.76%
Activity [3]: Active
Activity [4]: Active
Activity [5]: 3.32%
Activity [6]: Dose-Dependent Effect
Activity [7]: Active
Activity [8]: Active
Activity [9]: Active
IC50 [10]: 3680 nM
Activity [11]: Dose-Dependent Effect
viability at 2.5 µM [12]: 73%
IC50 [13]: 4840 nM
Activity [14]: 15.33%
Activity [15]: 23.15%
Activity [16]: Active
IC50 [17]: 1530 nM
Activity [18]: 16.82%
Activity [19]: Active
Activity [20]: 45.18%
Activity [21]: Active
Activity [22]: Active
Activity [23]: 18.2%
Activity [24]: Active
Activity [25]: Active
Activity [26]: 2.42%
IC50 [27]: 1780 nM
Activity [28]: Active
viability at 2.5 µM [29]: 22.9%
Activity [30]: Active
IC50 [31]: 2840 nM
Activity [32]: Active
Activity [33]: Active
Activity [34]: Active
Activity [35]: Active
